Values joined by “and” are separate entries in the source; they are usually repeats but may differ in a detail not shown here. Identical values can stand only once.
Target: T1, Beta-secretase 2 (Homo sapiens, UniProt Q9Y5Z0)
T1 sequence (Q9Y5Z0 whole entry): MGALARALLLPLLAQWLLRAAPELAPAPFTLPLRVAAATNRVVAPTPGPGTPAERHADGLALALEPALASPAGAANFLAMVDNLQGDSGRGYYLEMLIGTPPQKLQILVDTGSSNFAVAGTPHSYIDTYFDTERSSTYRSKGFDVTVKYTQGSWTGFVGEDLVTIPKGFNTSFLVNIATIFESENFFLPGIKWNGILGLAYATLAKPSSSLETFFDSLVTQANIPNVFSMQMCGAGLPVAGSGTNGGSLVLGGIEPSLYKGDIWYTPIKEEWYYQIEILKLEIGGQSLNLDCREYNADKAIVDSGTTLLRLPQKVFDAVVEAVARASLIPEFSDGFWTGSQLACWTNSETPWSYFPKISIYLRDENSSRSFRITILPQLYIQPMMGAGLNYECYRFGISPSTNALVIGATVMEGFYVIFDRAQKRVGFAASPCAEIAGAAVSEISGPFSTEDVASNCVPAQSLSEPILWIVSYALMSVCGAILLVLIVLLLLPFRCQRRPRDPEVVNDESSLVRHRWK
Test: Binding affinity for human brain memapsin 1

Ki | Compound
4.5 nM | CC(C)C[C@H](NC(=O)[C@@H]1CC(=O)NCCCCCCOC(=O)N[C@@H](C(C)C)C(=O)N1)[C@@H](O)C[C@@H](C)C(=O)N[C@H](C(=O)NCc1ccccc1)C(C)C

Target: Beta-secretase 1 (Homo sapiens, UniProt P56817)
Sequence (P56817 whole entry): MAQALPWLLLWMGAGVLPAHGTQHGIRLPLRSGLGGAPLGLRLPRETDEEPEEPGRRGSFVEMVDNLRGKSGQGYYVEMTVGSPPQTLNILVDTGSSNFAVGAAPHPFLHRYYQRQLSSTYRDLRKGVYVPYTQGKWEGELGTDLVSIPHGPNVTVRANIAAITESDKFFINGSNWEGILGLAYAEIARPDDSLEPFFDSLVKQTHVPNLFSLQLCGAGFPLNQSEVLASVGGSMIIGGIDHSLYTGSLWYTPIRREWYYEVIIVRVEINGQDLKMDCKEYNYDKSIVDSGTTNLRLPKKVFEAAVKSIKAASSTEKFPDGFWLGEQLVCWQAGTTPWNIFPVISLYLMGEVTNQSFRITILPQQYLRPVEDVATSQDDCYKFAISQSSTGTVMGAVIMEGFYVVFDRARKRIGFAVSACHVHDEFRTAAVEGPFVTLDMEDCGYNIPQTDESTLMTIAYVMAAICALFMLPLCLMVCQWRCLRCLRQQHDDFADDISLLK
Test: Binding affinity for human brain memapsin 2

Compound | Ki
CC(C)C[C@H](NC(=O)[C@@H]1CC(=O)NC/C=C/CCCOC(=O)N[C@@H](C(C)C)C(=O)N1)[C@@H](O)C[C@@H](C)C(=O)N[C@H](C(=O)NCc1ccccc1)C(C)C | 14.2 nM and 31 nM
CC(C)C[C@H](NC(=O)[C@@H]1CC(=O)NCCCCCOC(=O)N[C@@H](C(C)C)C(=O)N1)[C@@H](O)C[C@@H](C)C(=O)N[C@H](C(=O)NCc1ccccc1)C(C)C | 108 nM
CC(C)C[C@H](NC(=O)[C@@H]1CC(=O)NC/C=C/CCOC(=O)N[C@@H](C(C)C)C(=O)N1)[C@@H](O)C[C@@H](C)C(=O)N[C@H](C(=O)NCc1ccccc1)C(C)C | 28.4 nM

More lines, now with the values ahead:

Ki | Compound
112 nM | C=CCCCOC(=O)N[C@H](C(=O)N[C@@H](CC(=O)NCC=C)C(=O)N[C@@H](CC(C)C)[C@@H](O)C[C@@H](C)C(=O)N[C@H](C(=O)NCc1ccccc1)C(C)C)C(C)C
87.2 nM | CC(C)C[C@H](NC(=O)[C@@H]1CC(=O)NC/C=C/COC(=O)N[C@@H](C(C)C)C(=O)N1)[C@@H](O)C[C@@H](C)C(=O)N[C@H](C(=O)NCc1ccccc1)C(C)C
218 nM | CC(C)C[C@H](NC(=O)[C@@H]1CC(=O)NCCCCOC(=O)N[C@@H](C(C)C)C(=O)N1)[C@@H](O)C[C@@H](C)C(=O)N[C@H](C(=O)NCc1ccccc1)C(C)C
61.4 nM | C=CCCOC(=O)N[C@H](C(=O)N[C@@H](CC(=O)NCC=C)C(=O)N[C@@H](CC(C)C)[C@@H](O)C[C@@H](C)C(=O)N[C@H](C(=O)NCc1ccccc1)C(C)C)C(C)C

Reference: ChEMBL document CHEMBL1145144, “Structure-based design of cycloamide-urethane-derived novel inhibitors of human brain memapsin 2 (beta-secretase)” (Bioorg Med Chem Lett, 2005)
